Measured values reported in US4096259A, “Non-amphetaminic psychostimulating compositions of 1,4-disubstituted piperazines” (priority 1975, dated 1978).

What was measured:
[1] = test system: dog cardiovascular system; test: Secondary action on the dog cardiovascular system, intravenous; type: in vivo; conditions: intravenous administration
[2] = Group toxicity (LD50 grouped mice / LD50 isolated mice); conditions: mouse, in vivo
[3] = Acute toxicity (LD50) in mice, per os; conditions: mouse, in vivo, po
Text: Acute toxicity was studied by determining the LD50 in mice, the derivatives being administered per os.

[4] = test system: sleep in mice; test: Anti-sleep activity in mice; type: in vivo
[5] = test system: exploration response in mice; test: Psychostimulating activity: increase of exploration response in mice (actimetry); type: in vivo; conditions: Mus musculus, po, per os, dose which increases exploration response by 50%
Text: The psychostimulating activity was studied by determining the dose which increases the exploration response in mice (actimetry) by 50% (ED50),according to the method described by BOISSIER J.R. and SIMON P. (Arc. Int. Pharmacolyn, 1965, 212-221158).

[6] = test system: ptose with reserpine in mice; test: Ptose antagonism with reserpine in mice; type: in vivo; conditions: Mus musculus, po, per os
[7] = test system: mortality with pentetrazole in mice; test: Potentiation of mortality with pentetrazole in mice; type: in vivo; conditions: per os
[8] = Chronic toxicity in rats, oral; type: in vivo; conditions: 6 out of 7 days
[9] = Anorectic action in rats; type: in vivo
[10] = test system: aggressiveness in mice; test: Aggressiveness in mice in the electric struggle test; type: in vivo; conditions: Mus musculus, po, per os, read-out: increase in aggressiveness in the electric struggle test ED50
[11] = test system: neurotic depression, neurasthenia and school overwork; test: Clinical test in neurotic depression, neurasthenia and school overwork; type: in vivo, adults; conditions: 30 mg daily oral, one month
Procedure: (§1) By way of example, clinical tests were carried out on derivatives N° 5 and 21.
Derivative N° 5 was administered at a dose of 30 mg daily in three oral administrations of 10 mg to 6 adults treated for neurotic depression, neurasthenia and school overwork. The following results were obtained after treatment for one month: […]

[12] = test system: rat isolated duodenum; test: In vitro papaverine spasmolytic activity: duodenum contractions in rats induced by barium chloride; conditions: for Spasmolytic activity (papaverine hydrochloride = 1): in vitro, rat duodenum, barium chloride, relative to papaverine hydrochloride = 1
Procedure: The papaverine spasmolytic activity was measured "in vitro" by the concentration ratio: active principle/papaverine hydrochloride concentration, which reduces duodenum contractions in rats, induced by barium chloride, by 50% according to the method of POMARET J. C., SERGANT - ODY M., POURRIAS B. and HUGUET G. (Therapie, 1969, 24, 109-143).
(§2) Table V below gives, by way of example, the complementary pharmacological activities such as antiserotonin, adrenolytic and atropinic activities for derivatives N° 21, 23 and 33, the spasmolytic activity of which is the greatest for the rat isolated duodenum.

[13] = test system: Guinea-pig seminal vesicle; test: In vitro adrenolytic action on the Guinea-pig seminal vesicle; conditions: Yohimbine hydrochloride = 1
Text: as §2

[14] = test system: rabbit aorta; test: In vitro spasmolytic action on the rabbit aorta; conditions: papaverine hydrochloride = 1
Text: as §2

[15] = test system: rabbit isolated ear; test: In vitro spasmolytic action on the rabbit isolated ear; conditions: papaverine hydrochloride = 1
Text: as §2

[16] = test system: arteritis of the lower limbs, cerebral vascular sclerosis, sequelae of hemiplegia; test: Clinical test in arteritis of the lower limbs, cerebral vascular sclerosis, sequelae of hemiplegia; type: in vivo, adults; conditions: 15 mg/day oral, one month
Procedure: as §1

[17] = test system: Guinea-pig ileum; test: In vitro atropinic action on the Guinea-pig ileum; conditions: Atropine sulfate = 1
Text: as §2

[18] = test system: female rat uterus in oestrus; test: In vitro anti-serotonin activity on the female rat uterus in oestrus; conditions: Methysergide = 1
Text: as §2

[19] = test system: paw vessels of the dog; test: In vivo spasmolytic action on paw vessels of the dog; conditions: papaverine hydrochloride = 1
Text: as §2

[20] = cerebral vascular sclerosis, 4 cases

Row | SMILES | secondary action on the dog cardiovascular system [1] | selectivity ratio [2] | LD50 [3] [mg/kg] | Anti-sleep activity in mice [4] | ED50 [5] [mg/kg] | ED50 [6] [mg/kg] | Potentiation of mortality with pentetrazole in mice ED50 [7] [mg/kg] | Spasmolytic activity (papaverine hydrochloride = 1) [12] | further results
1 | O=C(O)CCN1CCN(CCOC(c2ccccc2)c2ccccc2)CC1 [Derivative 2] | devoid of any secondary action | 0.6 | 2250 | Nil | 80 | 55 | 320 | – | –
2 | O=C(O)CCCN1CCN(CCOC(c2ccccc2)c2ccccc2)CC1 [Derivative 3] | devoid of any secondary action | 1.25 | 1500 | Nil | 80 | 160 | > 300 | – | –
3 | O=C(O)CCN1CCN(CCOC(c2ccccc2)c2ccc(F)cc2)CC1 (stereo not shown) [Derivative 5] | devoid of any secondary action | 0.6 | 800 | Nil | 22 | 100 | 160 | – | chronic toxicity ([8]; oral, 80 mg/kg daily): low chronic toxicity; tolerance in chronic administration ([8]; oral, 80 mg/kg daily): well tolerated; anorectic action in rats [9]: absence of anorectic action; ED50 [10]: 6.5 mg/kg; presence of a psychostimulating action ([11]; 6 adults): 5 out of 6; Nil results, number of cases ([11]; neurasthenia (1 case)): 1 cases; Excellent results, number of cases ([11]; neurotic depression (2 cases)): 1 cases; Good results, number of cases ([11]; neurotic depression (2 cases)): 1 cases; Excellent results, number of cases ([11]; school overwork (3 cases)): 2 cases; Good results, number of cases ([11]; school overwork (3 cases)): 1 cases
4 | CCOC(=O)CCN1CCN(CCOC(c2ccccc2)c2ccccc2)CC1 [Derivative 16] | devoid of any secondary action | 0.8 | 2000 | Nil | 100 | 190 | > 400 | 1,5 | –
5 | CCOC(=O)CCN1CCN(CCOC(c2ccc(F)cc2)c2ccc(F)cc2)CC1.Cl.Cl [Derivative 21, 1-(ethoxycarbonylethyl)-4[2(4,4'-difluorobenzhydryloxy)-ethyl]piperazine dihydrochloride] | devoid of any secondary action | 0.4 | 750 | Nil | 30 | 70 | > 100 | 8,5 | In vitro adrenolytic action on the Guinea-pig seminal vesicle [13]: 4; spasmolytic activity for the rat isolated duodenum (in words) [12]: greatest; spasmolytic activity of the papaverine type in the tests as a whole (in words) ([12]; tests as a whole): excellent spasmolytic activity; In vitro spasmolytic action on the rabbit aorta [14]: 5; tolerance in chronic toxicity study ([8]; per os, 40 mg/kg, six months): perfectly well tolerated; In vitro spasmolytic action on the rabbit isolated ear [15]: 1,5; Improvement of the psychic state ([16]; arteritis of the lower limbs, 8 cases): 4 times; Improvement in intellectual activity [16, 20]: once; Improvement of the psychic state [16, 20]: twice; Improvement of motor disturbances ([16]; hemiplegia sequelae, 2 cases): 0; Improvement of the psychic state ([16]; hemiplegia sequelae, 2 cases): once; In vitro atropinic action on the Guinea-pig ileum [17]: > 0,01; In vitro anti-serotonin activity on the female rat uterus in oestrus [18]: 0,07; In vivo spasmolytic action on paw vessels of the dog [19]: 30
6 | CCOC(=O)CCCN1CCN(CCOC(c2ccc(F)cc2)c2ccc(F)cc2)CC1 [Derivative 23] | – | – | 800 | – | 50 | – | – | 13,5 | In vitro adrenolytic action on the Guinea-pig seminal vesicle [13]: 3; spasmolytic activity for the rat isolated duodenum (in words) [12]: greatest; In vitro spasmolytic action on the rabbit aorta [14]: 3; In vitro spasmolytic action on the rabbit isolated ear [15]: 0,3; In vitro atropinic action on the Guinea-pig ileum [17]: > 0,01; In vivo spasmolytic action on paw vessels of the dog [19]: 2
7 | NC(=O)CCN1CCN(CCOC(c2ccccc2)c2ccccc2)CC1 [Derivative 30] | – | – | 1000 | – | 80 | – | – | 0,1 | –
8 | O=C(CN1CCN(CCOC(c2ccccc2)c2ccccc2)CC1)N1CCOCC1 [Derivative 31] | – | – | 800 | – | 100 | – | – | 0,5 | –
9 | COc1ccccc1N1CCN(C(=O)CN2CCN(CCOC(c3ccccc3)c3ccccc3)CC2)CC1 [Derivative 32] | – | – | 1200 | – | 100 | – | – | 2 | –
10 | O=C(CN1CCN(CCOC(c2ccccc2)c2ccccc2)CC1)N1CCN(Cc2ccc3c(c2)OCO3)CC1 [Derivative 33, 1-(piperonylpiperazinocarbonylmethyl)-4-(2-benzhydryloxyethyl)piperazine trimaleate] | – | – | 600 | – | 25 | – | – | 10,5 | In vitro adrenolytic action on the Guinea-pig seminal vesicle [13]: 6; spasmolytic activity for the rat isolated duodenum (in words) [12]: greatest; In vitro spasmolytic action on the rabbit aorta [14]: 5; In vitro spasmolytic action on the rabbit isolated ear [15]: 0,5; In vitro atropinic action on the Guinea-pig ileum [17]: > 0,01; In vivo spasmolytic action on paw vessels of the dog [19]: 9
11 | O=C(CN1CCN(CCOC(c2ccc(F)cc2)c2ccc(F)cc2)CC1)N1CCN(Cc2ccc3c(c2)OCO3)CC1 [Derivative 34] | – | – | > 1600 | – | 160 | – | – | 1,5 | –
12 | CCCC(OCCN1CCN(CCC(=O)OCC)CC1)c1ccc(F)cc1 (stereo not shown) [Derivative 36] | – | – | 1600 | – | > 100 | – | – | 5 | –
